We go through 13 compounds from patent US20230073777A1, “CYCLIC-AMP RESPONSE ELEMENT BINDING PROTEIN (CBP) AND/OR ADENOVIRAL E1A BINDING PROTEIN OF 300 KDA (P300) DEGRADATION COMPOUNDS AND METHODS OF USE” (CULLGEN (SHANGHAI), INC., priority 2019, published 2023).

Read-outs that look alike come from different tables or passages of the source. A value given as a limit tells only on which side of the number the result lay.

One assay relates to LNCaP cells. Briefly: LNCaP cell viability assay (CellTiter-Glo). In kind it is cell-based. The conditions noted are these: Homo sapiens, 72 h, LNCaP prostate cancer cell viability inhibition, 3 days. In short, it runs like this:
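LNCaP cells, 5000/well, exposed to compounds in 12-point 3-fold serial dilution (top 10 μM) for 3 days. Viability by CellTiter-Glo luminescence, normalized to untreated cells; IC50 by least-squares nonlinear regression.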
In general terms: ATP-based viability assays read luminescence as a measure of living cells.

The target of a further assay is P300 (Homo sapiens, UniProt Q09472). In words: Immunoblotting of P300 protein levels in LNCaP or 22RV1 cells. The following applies: read-out: Degradation (10 nM). More on the design: LNCaP or 22RV1 cells that express CBP/P300 proteins were treated with GNE-781 or the bivalent compounds; endogenous in cells; host or cells: LNCaP (clone FGC) or 22RV1 cells. In kind it is cell-based. In short, it runs like this: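 LNCaP or 22RV1 cells treated with compounds for indicated hours, DMSO as negative control. RIPA lysates resolved by SDS-PAGE and immunoblotted for P300 or CBP, tubulin or vinculin as loading control; chemiluminescent bands quantitated.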
Sequence of P300 (Q09472 whole entry): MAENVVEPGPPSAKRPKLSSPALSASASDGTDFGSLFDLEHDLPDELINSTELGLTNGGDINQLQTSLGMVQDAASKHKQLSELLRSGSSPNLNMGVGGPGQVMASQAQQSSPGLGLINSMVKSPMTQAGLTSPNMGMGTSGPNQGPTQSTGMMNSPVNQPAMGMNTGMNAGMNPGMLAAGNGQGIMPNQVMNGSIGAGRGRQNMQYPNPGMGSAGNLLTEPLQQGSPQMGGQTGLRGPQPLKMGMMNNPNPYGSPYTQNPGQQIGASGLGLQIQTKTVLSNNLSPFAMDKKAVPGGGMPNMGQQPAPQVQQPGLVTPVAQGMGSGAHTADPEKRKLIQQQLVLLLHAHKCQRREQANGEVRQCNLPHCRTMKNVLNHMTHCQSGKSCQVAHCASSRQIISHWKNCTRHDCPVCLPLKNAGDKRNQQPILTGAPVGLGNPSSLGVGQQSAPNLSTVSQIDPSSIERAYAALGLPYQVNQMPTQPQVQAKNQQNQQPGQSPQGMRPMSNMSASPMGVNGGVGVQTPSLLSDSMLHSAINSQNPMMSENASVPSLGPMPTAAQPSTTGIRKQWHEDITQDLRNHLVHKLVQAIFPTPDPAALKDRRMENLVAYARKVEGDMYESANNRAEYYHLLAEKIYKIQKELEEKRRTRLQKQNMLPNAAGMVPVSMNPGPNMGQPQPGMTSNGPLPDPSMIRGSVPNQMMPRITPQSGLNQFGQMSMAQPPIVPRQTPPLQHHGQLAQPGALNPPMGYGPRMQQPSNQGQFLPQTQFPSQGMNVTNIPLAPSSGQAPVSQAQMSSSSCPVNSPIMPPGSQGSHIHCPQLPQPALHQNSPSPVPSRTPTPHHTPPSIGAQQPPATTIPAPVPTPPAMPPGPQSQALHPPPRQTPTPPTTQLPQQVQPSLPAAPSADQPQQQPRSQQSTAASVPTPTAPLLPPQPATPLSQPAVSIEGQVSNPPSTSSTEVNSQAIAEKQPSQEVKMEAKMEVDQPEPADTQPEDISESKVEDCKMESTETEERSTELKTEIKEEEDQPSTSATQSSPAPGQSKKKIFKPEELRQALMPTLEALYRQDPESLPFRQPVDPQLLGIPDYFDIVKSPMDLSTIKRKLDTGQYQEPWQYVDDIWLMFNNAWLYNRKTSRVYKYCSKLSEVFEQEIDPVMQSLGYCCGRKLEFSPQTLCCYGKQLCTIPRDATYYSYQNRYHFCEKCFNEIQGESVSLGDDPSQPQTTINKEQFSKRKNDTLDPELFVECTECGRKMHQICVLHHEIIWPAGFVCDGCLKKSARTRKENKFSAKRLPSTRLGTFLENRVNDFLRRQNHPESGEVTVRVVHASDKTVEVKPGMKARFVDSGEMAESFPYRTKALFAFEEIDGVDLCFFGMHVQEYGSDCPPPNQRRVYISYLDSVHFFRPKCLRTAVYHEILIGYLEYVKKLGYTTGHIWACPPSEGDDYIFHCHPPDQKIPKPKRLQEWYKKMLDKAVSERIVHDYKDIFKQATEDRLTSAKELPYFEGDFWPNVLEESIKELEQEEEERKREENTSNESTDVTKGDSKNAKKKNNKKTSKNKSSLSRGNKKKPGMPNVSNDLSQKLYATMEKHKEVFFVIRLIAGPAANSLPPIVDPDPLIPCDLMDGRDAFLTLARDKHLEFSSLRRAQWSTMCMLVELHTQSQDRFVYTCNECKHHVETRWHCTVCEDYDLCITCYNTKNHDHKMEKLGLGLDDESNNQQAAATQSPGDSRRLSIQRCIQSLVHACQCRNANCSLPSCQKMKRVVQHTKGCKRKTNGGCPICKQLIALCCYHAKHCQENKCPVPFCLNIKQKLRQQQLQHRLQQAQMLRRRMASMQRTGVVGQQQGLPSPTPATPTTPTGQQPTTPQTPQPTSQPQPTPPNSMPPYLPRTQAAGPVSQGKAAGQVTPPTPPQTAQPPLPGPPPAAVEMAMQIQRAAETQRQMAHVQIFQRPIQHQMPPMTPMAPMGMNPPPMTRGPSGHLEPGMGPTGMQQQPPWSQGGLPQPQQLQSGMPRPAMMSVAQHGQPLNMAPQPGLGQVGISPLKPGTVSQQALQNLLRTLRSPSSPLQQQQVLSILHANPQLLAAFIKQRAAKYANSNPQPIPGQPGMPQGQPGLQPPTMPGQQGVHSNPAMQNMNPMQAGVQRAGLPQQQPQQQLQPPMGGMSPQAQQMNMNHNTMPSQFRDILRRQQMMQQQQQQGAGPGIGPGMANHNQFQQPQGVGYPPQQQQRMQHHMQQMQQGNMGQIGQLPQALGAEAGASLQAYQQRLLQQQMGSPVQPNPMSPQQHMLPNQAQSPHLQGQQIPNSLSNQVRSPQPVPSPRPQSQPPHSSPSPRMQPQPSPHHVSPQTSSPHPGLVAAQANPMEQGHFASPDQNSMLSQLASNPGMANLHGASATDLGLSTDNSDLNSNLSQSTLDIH
(Immunoblotting shows a protein as a band on a membrane.)

Where [1] appears, read: percentage of inhibition of p300 at 10 nM (Table 3).
Where [2] appears, read: percentage of inhibition of p300 at 10 nM (Table 2).

One may read the IC50 as the concentration that gives 50% inhibition. Low readings indicate greater potency, high ones weaker potency. In the assay on LNCaP cells (CellTiter-Glo (Table 3)), `CC(=O)N1CCc2c(c(N3CCCc4cc(-c5cnn(C)c5)c(C(F)F)cc43)nn2C2CCN(C(=O)CCN3CCC(CCc4cccc5c4C(=O)N(C4CCC(=O)NC4=O)C5=O)CC3)CC2)C1` (centres unmarked) [P-148, 4-(2-(1-(3-(4-(5-acetyl-3-(7-(difluoromethyl)-6-(1-methyl-1H-pyrazol-4-yl)-3,4-dihydroquinolin-1(2H)-yl)-4,5,6,7-tetrahydro-1H-pyrazolo[4,3-c]pyridin-1-yl)piperidin-1-yl)-3-oxopropyl)piperidin-4-yl)ethyl)-2-(2,6-dioxopiperidin-3-yl)isoindoline-1,3-dione] showed a concentration for half-maximal inhibition (IC50) of 73.3 nM. Besides, the inhibition at 0.01 µM at P300 (setting [1]) is above 80%.

`CC(=O)N1CCc2c(c(N3CCCc4cc(-c5cnn(C)c5)c(C(F)F)cc43)nn2C2CCN(C(=O)CCCCCCCNc3cccc4c3n(C)c(=O)n4C3CCC(=O)NC3=O)CC2)C1` (centres unmarked) [P-159, 3-(4-((8-(4-(5-acetyl-3-(7-(difluoromethyl)-6-(1-methyl-1H-pyrazol-4-yl)-3,4-dihydroquinolin-1(2H)-yl)-4,5,6,7-tetrahydro-1H-pyrazolo[4,3-c]pyridin-1-yl)piperidin-1-yl)-8-oxooctyl)amino)-3-methyl-2-oxo-2,3-dihydro-1H-benzo[d]imidazol-1-yl)piperidine-2,6-dione] displayed an IC50 with LNCaP cells (CellTiter-Glo (Table 3)) of 0.2 nM. Moreover, at P300 (setting [1]), the inhibition at 0.01 µM is above 80%.

Take `CNC(=O)N1CCc2c(c(N3CCCc4cc(-c5cnn(CC(=O)NCCC(=O)N[C@H](C(=O)N6C[C@H](O)C[C@H]6C(=O)NCc6ccc(-c7scnc7C)cc6)C(C)(C)C)c5)c(C(F)F)cc43)nn2C2CCOCC2)C1` [P-045, 3-(7-(Difluoromethyl)-6-(1-(2-((3-(((S)-1-((2S,4R)-4-hydroxy-2-((4-(4-methylthiazol-5-yl)benzyl)carbamoyl)pyrrolidin-1-yl)-3,3-dimethyl-1-oxobutan-2-yl)amino)-3-oxopropyl)amino)-2-oxoethyl)-1H-pyrazol-4-yl)-3,4-dihydroquinolin-1(2H)-yl)-N-methyl-1-(tetrahydro-2H-pyran-4-yl)-1,4,6,7-tetrahydro-5H-pyrazolo[4,3-c]pyridine-5-carboxamide]: the IC50 in the assay on LNCaP cells (CellTiter-Glo (Table 2)) is above 10000 nM. The inhibition at 0.01 µM at P300 (setting [2]) is below 20%.

On to `CC(=O)N1CCc2c(c(N3CCCc4cc(-c5cnn(C)c5)c(C(F)F)cc43)nn2C2CCN(C(=O)CCCCCCNc3cccc4c3n(C)c(=O)n4C3CCC(=O)NC3=O)CC2)C1` (centres unmarked) [P-111, 3-(4-((7-(4-(5-acetyl-3-(7-(difluoromethyl)-6-(1-methyl-1H-pyrazol-4-yl)-3,4-dihydroquinolin-1(2H)-yl)-4,5,6,7-tetrahydro-1H-pyrazolo[4,3-c]pyridin-1-yl)piperidin-1-yl)-7-oxoheptyl)amino)-3-methyl-2-oxo-2,3-dihydro-1H-benzo[d]imidazol-1-yl)piperidine-2,6-dione], for which the IC50 with LNCaP cells (CellTiter-Glo (Table 3)) was found to be 7.6 nM. Moreover, the inhibition at 0.01 µM at P300 (setting [1]) was above 80%.

As for `CNC(=O)N1CCc2c(c(N3CCCc4cc(-c5cnn(C)c5)c(C(F)F)cc43)nn2C2CCN(C(=O)CCCCCCC(=O)N[C@H](C(=O)N3C[C@H](O)C[C@H]3C(=O)NCc3ccc(-c4scnc4C)cc3)C(C)(C)C)CC2)C1` [P-060, 3-(7-(Difluoromethyl)-6-(1-methyl-1H-pyrazol-4-yl)-3,4-dihydroquinolin-1(2H)-yl)-1-(1-(8-(((S)-1-((2S,4R)-4-hydroxy-2-((4-(4-methylthiazol-5-yl)benzyl)carbamoyl)pyrrolidin-1-yl)-3,3-dimethyl-1-oxobutan-2-yl)amino)-8-oxooctanoyl)piperidin-4-yl)-N-methyl-1,4,6,7-tetrahydro-5H-pyrazolo[4,3-c]pyridine-5-carboxamide], in the assay with LNCaP cells (CellTiter-Glo (Table 3)), the IC50 was found to be 59.1 nM. The inhibition at 0.01 µM at P300 (setting [1]) is below 20%.

As to `CNC(=O)N1CCc2c(c(N3CCCc4cc(-c5cnn(C)c5)c(C(F)F)cc43)nn2C2CCN(C(=O)CCOCCOCCOCCOCCC(=O)N[C@H](C(=O)N3C[C@H](O)C[C@H]3C(=O)NCc3ccc(-c4scnc4C)cc3)C(C)(C)C)CC2)C1` [P-070, 3-(7-(Difluoromethyl)-6-(1-methyl-1H-pyrazol-4-yl)-3,4-dihydroquinolin-1(2H)-yl)-1-(1-((S)-18-((2S,4R)-4-hydroxy-2-((4-(4-methylthiazol-5-yl)benzyl)carbamoyl)pyrrolidine-1-carbonyl)-19,19-dimethyl-16-oxo-4,7,10,13-tetraoxa-17-azaicosanoyl)piperidin-4-yl)-N-methyl-1,4,6,7-tetrahydro-5H-pyrazolo[4,3-c]pyridine-5-carboxamide], the 50% inhibitory concentration (IC50) with LNCaP cells (CellTiter-Glo (Table 3)) was found to be 31.9 nM. For the same compound, the inhibition at 0.01 µM on P300 (setting [1]) was below 20%.

The compound `CNC(=O)N1CCc2c(c(N3CCCc4cc(-c5cnn(CC(=O)NCCCCCCNc6cccc7c6C(=O)N(C6CCC(=O)NC6=O)C7=O)c5)c(C(F)F)cc43)nn2C2CCOCC2)C1` (centres unmarked) [P-041, 3-(7-(difluoromethyl)-6-(1-(2-((6-((2-(2,6-dioxopiperidin-3-yl)-1,3-dioxoisoindolin-4-yl)amino)hexyl)amino)-2-oxoethyl)-1H-pyrazol-4-yl)-3,4-dihydroquinolin-1(2H)-yl)-N-methyl-1-(tetrahydro-2H-pyran-4-yl)-1,4,6,7-tetrahydro-5H-pyrazolo[4,3-c]pyridine-5-carboxamide] showed an IC50 with LNCaP cells (CellTiter-Glo (Table 2)) of 10.6 nM. Also, at P300 (setting [2]), the inhibition at 0.01 µM fell in the range of 20 to 50%.

Turning to `CNC(=O)N1CCc2c(c(N3CCCc4cc(-c5cnn(C)c5)c(C(F)F)cc43)nn2C2CCN(C(=O)COCCOCCOCCOCCOCC(=O)N[C@H](C(=O)N3C[C@H](O)C[C@H]3C(=O)NCc3ccc(-c4scnc4C)cc3)C(C)(C)C)CC2)C1` [P-071, 3-(7-(Difluoromethyl)-6-(1-methyl-1H-pyrazol-4-yl)-3,4-dihydroquinolin-1(2H)-yl)-1-(1-((S)-19-((2S,4R)-4-hydroxy-2-((4-(4-methylthiazol-5-yl)benzyl)carbamoyl)pyrrolidine-1-carbonyl)-20,20-dimethyl-17-oxo-3,6,9,12,15-pentaoxa-18-azahenicosanoyl)piperidin-4-yl)-N-methyl-1,4,6,7-tetrahydro-5H-pyrazolo[4,3-c]pyridine-5-carboxamide], the half-maximal inhibitory concentration (IC50) in the assay on LNCaP cells (CellTiter-Glo (Table 3)) turned out to be 107 nM. Also, the inhibition at 0.01 µM at P300 (setting [1]) was in the range of 20 to 50%.

`CNC(=O)N1CCc2c(c(N3CCCc4cc(-c5cnn(C)c5)c(C(F)F)cc43)nn2C2CCN(C(=O)CCCCCCNc3cccc4c3n(C)c(=O)n4C3CCC(=O)NC3=O)CC2)C1` (centres unmarked) [P-114, 3-(7-(Difluoromethyl)-6-(1-methyl-1H-pyrazol-4-yl)-3,4-dihydroquinolin-1(2H)-yl)-1-(1-(7-((1-(2,6-dioxopiperidin-3-yl)-3-methyl-2-oxo-2,3-dihydro-1H-benzo[d]imidazol-4-yl)amino)heptanoyl)piperidin-4-yl)-N-methyl-1,4,6,7-tetrahydro-5H-pyrazolo[4,3-c]pyridine-5-carboxamide] displayed an IC50 in the assay on LNCaP cells (CellTiter-Glo (Table 3)) of 877 nM. Moreover, at P300 (setting [1]), the inhibition at 0.01 µM lay in the range of 20 to 50%.

`CC(=O)N1CCc2c(c(N3CCCc4cc(-c5cnn(C)c5)c(C(F)F)cc43)nn2C2CCN(C(=O)CCCCCNc3ccc4c(c3)n(C)c(=O)n4C3CCC(=O)NC3=O)CC2)C1` (centres unmarked) [P-116, 3-(5-((6-(4-(5-acetyl-3-(7-(difluoromethyl)-6-(1-methyl-1H-pyrazol-4-yl)-3,4-dihydroquinolin-1(2H)-yl)-4,5,6,7-tetrahydro-1H-pyrazolo[4,3-c]pyridin-1-yl)piperidin-1-yl)-6-oxohexyl)amino)-3-methyl-2-oxo-2,3-dihydro-1H-benzo[d]imidazol-1-yl)piperidine-2,6-dione] gave a half-inhibitory concentration (IC50) in the assay on LNCaP cells (CellTiter-Glo (Table 3)) of 9.6 nM. Besides, at P300 (setting [1]), the inhibition at 0.01 µM is above 80%.

As for `CC(=O)N1CCc2c(c(N3CCCc4cc(-c5cnn(C)c5)c(C(F)F)cc43)nn2C2CCN(C(=O)CN3CCOC(CNc4cccc5c4C(=O)N(C4CCC(=O)NC4=O)C5=O)C3)CC2)C1` (centres unmarked) [P-141, 4-(((4-(2-(4-(5-Acetyl-3-(7-(difluoromethyl)-6-(1-methyl-1H-pyrazol-4-yl)-3,4-dihydroquinolin-1(2H)-yl)-4,5,6,7-tetrahydro-1H-pyrazolo[4,3-c]pyridin-1-yl)piperidin-1-yl)-2-oxoethyl)morpholin-2-yl)methyl)amino)-2-(2,6-dioxopiperidin-3-yl)isoindoline-1,3-dione], in the assay on LNCaP cells (CellTiter-Glo (Table 3)), 156 nM corresponded to half-maximal inhibition (IC50). Besides, the inhibition at 0.01 µM on P300 (setting [1]) lay within 50 to 80%.

Turning to `CNC(=O)N1CCc2c(c(N3CCCc4cc(-c5cnn(CC(=O)NCCCCCCCNc6cccc7c6C(=O)N(C6CCC(=O)NC6=O)C7=O)c5)c(C(F)F)cc43)nn2C2CCOCC2)C1` (centres unmarked) [P-042], in the assay on LNCaP cells (CellTiter-Glo (Table 2)), 39 nM corresponded to half-maximal inhibition (IC50). In addition, the inhibition at 0.01 µM on P300 (setting [2]) was below 20%.

As to `CNC(=O)N1CCc2c(c(N3CCCc4cc(-c5cnn(C)c5)c(C(F)F)cc43)nn2C2CCN(C(=O)COCCOCCOCC(=O)N[C@H](C(=O)N3C[C@H](O)C[C@H]3C(=O)NCc3ccc(-c4scnc4C)cc3)C(C)(C)C)CC2)C1` [P-068, 3-(7-(Difluoromethyl)-6-(1-methyl-1H-pyrazol-4-yl)-3,4-dihydroquinolin-1(2H)-yl)-1-(1-((S)-13-((2S,4R)-4-hydroxy-2-((4-(4-methylthiazol-5-yl)benzyl)carbamoyl)pyrrolidine-1-carbonyl)-14,14-dimethyl-11-oxo-3,6,9-trioxa-12-azapentadecanoyl)piperidin-4-yl)-N-methyl-1,4,6,7-tetrahydro-5H-pyrazolo[4,3-c]pyridine-5-carboxamide], it took 30.8 nM to reach half-maximal inhibition in the assay on LNCaP cells (CellTiter-Glo (Table 3)) (IC50). Moreover, at P300 (setting [1]), the inhibition at 0.01 µM is below 20%.
